Test results from ChEMBL document CHEMBL1149764, “Synthesis, structure and biological activity of pseudopeptidic macrolides based on an amino alcohol” (Eur J Med Chem, 2008).
≈ marks a conversion by molar mass, not a printed value.

Columns and labels:
Candida albicans = test: Antifungal activity against Candida albicans ATCC 10231 after 48 hrs standard broth microdilution method; assay type: functional; conditions: ATCC 10231, 48 h
Aspergillus niger = test: Antifungal activity against Aspergillus niger ATCC 16404 after 48 hrs standard broth microdilution method; assay type: functional; conditions: ATCC 16404, 48 h
Saccharomyces cerevisiae = test: Antifungal activity against Saccharomyces cerevisiae SYM 3513 after 48 hrs standard broth microdilution method; assay type: functional
[1] = Antifungal activity against […] glutinis SYM 2209 after 48 hrs standard broth microdilution method; assay type: functional
Aspergillus flavus = test: Antifungal activity against Aspergillus flavus SYM 223 after 48 hrs standard broth microdilution method; assay type: functional
[2] = Toxicity against human erythrocytes assessed as hemolytic activity at 4000 ug/ml; assay type: cell-based, Erythrocyte; conditions: read-out: Activity
Escherichia coli = test: Antibacterial activity against Escherichia coli ATCC 25922 after 24 hrs by twofold dilution method; assay type: functional; conditions: ATCC 25922, 24 h
Staphylococcus aureus = test: Antibacterial activity against Staphylococcus aureus ATCC 25923 after 24 hrs by twofold dilution method; assay type: functional; conditions: ATCC 25923, 24 h
Bacillus subtilis = test: Antibacterial activity against Bacillus subtilis ATCC 6633 after 24 hrs by twofold dilution method; assay type: functional; conditions: ATCC 6633, 24 h
[3] = Toxicity against human erythrocytes assessed as hemolytic activity at 2000 ug/ml; assay type: cell-based, Erythrocyte; conditions: read-out: Activity
[4] = Antifungal activity against […] nigricans SYM 2417 after 48 hrs standard broth microdilution method; assay type: functional
Cryptococcus neoformans = test: Antifungal activity against Cryptococcus neoformans SYM 523 after 48 hrs standard broth microdilution method; assay type: functional
Pseudomonas aeruginosa = test: Antibacterial activity against Pseudomonas aeruginosa ATCC 27853 after 24 hrs by twofold dilution method; assay type: functional; conditions: ATCC 27853, 24 h
[5] = Toxicity against human erythrocytes assessed as hemolytic activity at 500 ug/ml; assay type: cell-based, Erythrocyte; conditions: read-out: Activity
[6] = Toxicity against human erythrocytes assessed as hemolytic activity at 1000 ug/ml; assay type: cell-based, Erythrocyte; conditions: read-out: Activity
[7] = Toxicity against human erythrocytes assessed as hemolytic activity at 250 ug/ml; assay type: cell-based, Erythrocyte; conditions: read-out: Activity

## C[C@@H]1[C@H](O)[C@@H](C)/C=C/C=C/C=C/C=C/C=C/C=C/C=C/[C@H](O[C@@H]2O[C@H](C)[C@@H](O)[C@H](N)[C@@H]2O)C[C@@H]2O[C@](O)(C[C@@H](O)C[C@@H](O)[C@H](O)CC[C@@H](O)C[C@@H](O)CC(=O)O[C@H]1C)C[C@H](O)[C@H]2C(=O)O [AMPHOTERICIN B]
Candida albicans
  MIC: 1 µg/mL (≈ 1.08 µM)
Aspergillus niger
  MIC: 1 µg/mL (≈ 1.08 µM)
Saccharomyces cerevisiae
  MIC: 0.5 µg/mL (≈ 0.541 µM)
[1]
  MIC: 2 µg/mL (≈ 2.16 µM)
Aspergillus flavus
  MIC: 0.5 µg/mL (≈ 0.541 µM)

## O=C1N[C@@H]2c3ccccc3C[C@@H]2OC(=O)c2cccc(c2)C(=O)O[C@H]2Cc3ccccc3[C@H]2NC(=O)c2cccc1c2
[2]
  hemolysis at 4000 ug/ml: 2%
Escherichia coli
  MIC: 16 µg/mL (≈ 28.6 µM)
Staphylococcus aureus
  MIC: 4 µg/mL (≈ 7.16 µM)
Candida albicans
  MIC: 1 µg/mL (≈ 1.79 µM)
Bacillus subtilis
  MIC: 8 µg/mL (≈ 14.3 µM)
Aspergillus niger
  MIC: 8 µg/mL (≈ 14.3 µM)
[3]
  hemolysis at 2000 ug/ml: 0.5%
[4]
  MIC: 1 µg/mL (≈ 1.79 µM)
Saccharomyces cerevisiae
  MIC: 32 µg/mL (≈ 57.3 µM)
[1]
  MIC: 4 µg/mL (≈ 7.16 µM)
Aspergillus flavus
  MIC: 2 µg/mL (≈ 3.58 µM)
Cryptococcus neoformans
  MIC: 4 µg/mL (≈ 7.16 µM)
Pseudomonas aeruginosa
  MIC: > 64 µg/mL
[5]
  hemolysis at 500 ug/ml: 0%
[6]
  hemolysis at 1000 ug/ml: 0%
[7]
  hemolysis at 250 ug/ml: 0%

## O=C1O[C@H]2Cc3ccccc3[C@H]2NC(=O)c2cccc(n2)C(=O)N[C@@H]2c3ccccc3C[C@@H]2OC(=O)c2cccc1c2
[2]
  hemolysis at 4000 ug/ml: 9%
Escherichia coli
  MIC: > 64 µg/mL
Staphylococcus aureus
  MIC: 32 µg/mL (≈ 57.2 µM)
Candida albicans
  MIC: 4 µg/mL (≈ 7.15 µM)
Bacillus subtilis
  MIC: 4 µg/mL (≈ 7.15 µM)
Aspergillus niger
  MIC: 4 µg/mL (≈ 7.15 µM)
[3]
  hemolysis at 2000 ug/ml: 6%
[4]
  MIC: 4 µg/mL (≈ 7.15 µM)
Saccharomyces cerevisiae
  MIC: 16 µg/mL (≈ 28.6 µM)
[1]
  MIC: 8 µg/mL (≈ 14.3 µM)
Aspergillus flavus
  MIC: 8 µg/mL (≈ 14.3 µM)
Cryptococcus neoformans
  MIC: 8 µg/mL (≈ 14.3 µM)
Pseudomonas aeruginosa
  MIC: 32 µg/mL (≈ 57.2 µM)
[5]
  hemolysis at 500 ug/ml: 0%
[6]
  hemolysis at 1000 ug/ml: 3%
[7]
  hemolysis at 250 ug/ml: 0%

## O=C1O[C@H]2Cc3ccccc3[C@H]2NC(=O)c2cccc(n2)C(=O)N[C@@H]2c3ccccc3C[C@@H]2OC(=O)C2=CC=C1S2
[2]
  hemolysis at 4000 ug/ml: 14%
Escherichia coli
  MIC: > 64 µg/mL
Staphylococcus aureus
  MIC: 8 µg/mL (≈ 14.1 µM)
Candida albicans
  MIC: 1 µg/mL (≈ 1.77 µM)
Bacillus subtilis
  MIC: > 64 µg/mL
Aspergillus niger
  MIC: 4 µg/mL (≈ 7.07 µM)
[3]
  hemolysis at 2000 ug/ml: 6%
[4]
  MIC: 1 µg/mL (≈ 1.77 µM)
Saccharomyces cerevisiae
  MIC: 8 µg/mL (≈ 14.1 µM)
[1]
  MIC: 4 µg/mL (≈ 7.07 µM)
Aspergillus flavus
  MIC: 1 µg/mL (≈ 1.77 µM)
Cryptococcus neoformans
  MIC: 4 µg/mL (≈ 7.07 µM)
Pseudomonas aeruginosa
  MIC: > 64 µg/mL
[5]
  hemolysis at 500 ug/ml: 1%
[6]
  hemolysis at 1000 ug/ml: 4%
[7]
  hemolysis at 250 ug/ml: 0.5%

## O=C1N[C@@H]2c3ccccc3C[C@@H]2OC(=O)c2cccc(n2)C(=O)O[C@H]2Cc3ccccc3[C@H]2NC(=O)c2cccc1n2
[2]
  hemolysis at 4000 ug/ml: 2%
Escherichia coli
  MIC: 32 µg/mL (≈ 57.1 µM)
Staphylococcus aureus
  MIC: 4 µg/mL (≈ 7.14 µM)
Candida albicans
  MIC: 1 µg/mL (≈ 1.78 µM)
Bacillus subtilis
  MIC: 8 µg/mL (≈ 14.3 µM)
Aspergillus niger
  MIC: 4 µg/mL (≈ 7.14 µM)
[3]
  hemolysis at 2000 ug/ml: 1%
[4]
  MIC: 8 µg/mL (≈ 14.3 µM)
Saccharomyces cerevisiae
  MIC: 64 µg/mL (≈ 114 µM)
[1]
  MIC: 16 µg/mL (≈ 28.5 µM)
Aspergillus flavus
  MIC: > 64 µg/mL
Cryptococcus neoformans
  MIC: 16 µg/mL (≈ 28.5 µM)
Pseudomonas aeruginosa
  MIC: > 64 µg/mL
[5]
  hemolysis at 500 ug/ml: 0%
[6]
  hemolysis at 1000 ug/ml: 0%
[7]
  hemolysis at 250 ug/ml: 0%

## O=C1O[C@H]2Cc3ccccc3[C@H]2NC(=O)c2cccc(c2)C(=O)N[C@@H]2c3ccccc3C[C@@H]2OC(=O)C2=CC=C1S2
[2]
  hemolysis at 4000 ug/ml: 9%
Escherichia coli
  MIC: 16 µg/mL (≈ 28.3 µM)
Staphylococcus aureus
  MIC: 16 µg/mL (≈ 28.3 µM)
Candida albicans
  MIC: 1 µg/mL (≈ 1.77 µM)
Bacillus subtilis
  MIC: > 64 µg/mL
Aspergillus niger
  MIC: 32 µg/mL (≈ 56.7 µM)
[3]
  hemolysis at 2000 ug/ml: 4%
[4]
  MIC: 1 µg/mL (≈ 1.77 µM)
Saccharomyces cerevisiae
  MIC: 16 µg/mL (≈ 28.3 µM)
[1]
  MIC: 4 µg/mL (≈ 7.08 µM)
Aspergillus flavus
  MIC: 8 µg/mL (≈ 14.2 µM)
Cryptococcus neoformans
  MIC: 4 µg/mL (≈ 7.08 µM)
Pseudomonas aeruginosa
  MIC: > 64 µg/mL
[5]
  hemolysis at 500 ug/ml: 0%
[6]
  hemolysis at 1000 ug/ml: 1%
[7]
  hemolysis at 250 ug/ml: 0%

## O=C(N[C@H](CO)[C@H](O)c1ccc([N+](=O)[O-])cc1)C(Cl)Cl [CHLORAMPHENICOL]
Escherichia coli
  MIC: 8 µg/mL (≈ 24.8 µM)
Staphylococcus aureus
  MIC: 4 µg/mL (≈ 12.4 µM)
Bacillus subtilis
  MIC: 8 µg/mL (≈ 24.8 µM)
Pseudomonas aeruginosa
  MIC: 32 µg/mL (≈ 99 µM)

## OC(Cn1cncn1)(Cn1cncn1)c1ccc(F)cc1F [FLUCONAZOLE]
Candida albicans
  MIC: 16 µg/mL (≈ 52.2 µM)
Aspergillus niger
  MIC: 64 µg/mL (≈ 209 µM)
Saccharomyces cerevisiae
  MIC: 32 µg/mL (≈ 104 µM)
[1]
  MIC: > 64 µg/mL
Aspergillus flavus
  MIC: 64 µg/mL (≈ 209 µM)
Cryptococcus neoformans
  MIC: 32 µg/mL (≈ 104 µM)

## O=C1N[C@@H]2c3ccccc3C[C@@H]2OC(=O)c2cccc(n2)C(=O)O[C@H]2Cc3ccccc3[C@H]2NC(=O)c2cccc1c2
[2]
  hemolysis at 4000 ug/ml: 7%
Escherichia coli
  MIC: 32 µg/mL (≈ 57.2 µM)
Staphylococcus aureus
  MIC: 16 µg/mL (≈ 28.6 µM)
Candida albicans
  MIC: 4 µg/mL (≈ 7.15 µM)
Bacillus subtilis
  MIC: > 64 µg/mL
Aspergillus niger
  MIC: 8 µg/mL (≈ 14.3 µM)
[3]
  hemolysis at 2000 ug/ml: 4%
[4]
  MIC: 4 µg/mL (≈ 7.15 µM)
Saccharomyces cerevisiae
  MIC: 32 µg/mL (≈ 57.2 µM)
[1]
  MIC: 8 µg/mL (≈ 14.3 µM)
Aspergillus flavus
  MIC: 2 µg/mL (≈ 3.57 µM)
Cryptococcus neoformans
  MIC: 16 µg/mL (≈ 28.6 µM)
Pseudomonas aeruginosa
  MIC: > 64 µg/mL
[5]
  hemolysis at 500 ug/ml: 0%
[6]
  hemolysis at 1000 ug/ml: 2%
[7]
  hemolysis at 250 ug/ml: 0%
